This note sets out measurements from patent US12310942B2, “Pharmaceutical compositions comprising statins and hyaluronic acid derivatives” (FIDIA FARMACEUTICI S.p.A., priority 2019, dated 2025).

Like-named read-outs stand apart in the source and are kept apart here.

The assay has as its system bovine cartilage biopsies. The following applies: IL-1β and OSM 10 ng/mL, 21 days, FIG. 3. The method, then: For this purpose, cartilage biopsies were collected from the patello-femoral sulcus and femoral condyles from the femur of 1 adult bovine (15-18 months). […] The biopsies (Ø=3 mm) were taken with a steel punch.
Each biopsy was transferred to a well of a 48-well MW and washed twice with 500 μL PBS 1× (Euroclone, cat. no. ECB4004L, Italy). […] The biopsies were incubated for 24 h at 37° C. 5% CO2. After incubation, the biopsies were washed with 500 μL PBS 1×, and 500 μL DMEM/F-12+2% FBS containing the dilution of the compound to be tested were added to all the wells. Each statin was used at the concentrations of 10 μM and 2.5 μM. 4 biopsies were used for each condition. After 7, 14 and 21 days, the biopsy culture medium was aspirated and replaced with 500 μL of fresh culture medium containing the appropriate concentrations of pro-inflammatory cytokines (IL-1β and OSM, 10 ng/mL) and the active ingredients to be tested. The biopsy culture medium was harvested after 21 days and used to determine the soluble collagen content. The Sircol assay was conducted according to the manufacturer's instructions, and quantitation was effected by spectrophotometric reading at 555 nm.

`CC(C)c1c(C(=O)Nc2ccccc2)c(-c2ccccc2)c(-c2ccc(F)cc2)n1CC[C@@H](O)C[C@@H](O)CC(=O)O` [atorvastatin]: the “collagen release induced by IL-1β and OSM” value (“collagen release induced” below) is listed as “significant reduction in collagen release” (statin 2.5 μM) and “significant reduction in collagen release” (statin 10 μM).
In the case of `CC[C@H](C)C(=O)O[C@H]1C[C@@H](C)C=C2C=C[C@H](C)[C@H](CC[C@@H]3C[C@@H](O)CC(=O)O3)[C@H]21` [lovastatin], the “collagen release induced” value (statin 2.5 μM) is “values comparable to those of the untreated control”; the “collagen release induced” value (statin 10 μM) is “significant reduction in collagen release”.
